Experimental data: PMC11017246, “Discovery of GLPG2737, a Potent Type 2 Corrector of CFTR for the Treatment of Cystic Fibrosis in Combination with a Potentiator and a Type 1 Co-corrector” (Journal of Medicinal Chemistry, 2024)

Experiments:
[1] = Hepatocyte stability, mouse; format: in vitro ADME; conditions: mouse hepatocytes
Description: The hepatocyte stability assay was performed by incubation of test compound at 1 μM, 0.03% DMSO in modified Krebs–Henseleit buffer with suspension of pooled cryopreserved hepatocytes (BioIVT, Hicksville, NY, USA) from mouse, rat, dog, or human (BioIVT, Hicksville, NY, USA) at 0.5 million viable hepatocytes/mL. Before adding the hepatocytes (time zero) and after 10, 20, 45, 90, 120, and 180 min of incubation (n = 2) at 37 °C while gently shaking, the reaction was stopped and proteins were precipitated with an excess of acetonitrile containing an internal standard. The samples were mixed, centrifuged, and filtered, and the supernatant was analyzed by liquid chromatography–mass spectrometry/mass spectrometry (LC–MS/MS). The instrument responses (peak areas/IS peak areas) were referenced to the zero-time point samples (considered as 100%) in order to determine the percentage of compound remaining.

[2] = Liver microsomal stability, monkey; format: in vitro ADME; conditions: matrix not given, read-out: Clintr,unbound monkey (converted)
Description: The microsomal stability assay was performed by incubation of test compound at 1 μM, 0.2% DMSO in phosphate buffer with microsomes (0.5 mg/mL) from mouse, rat, dog, or human (Xeno-Tech, Kansas City, KS, USA), and cofactors with final concentrations of 0.6 U/mL glucose-6- phosphate dehydrogenase, 3.3 mM MgCl2, 3.3 mM glucose-6-phosphate, and 1.3 mM nicotinamide adenine dinucleotide phosphate (NADP)+. Before addition of the microsomes (time zero) and after 30 min of incubation at 37 °C with shaking, the reaction was stopped, and proteins were precipitated with an excess of acetonitrile containing an internal standard. The samples were mixed, centrifuged, and filtered, and the supernatant was analyzed by liquid chromatography–mass spectrometry/mass spectrometry (LC–MS/MS). […] In vitro unbound intrinsic clearance (CLint,u) was calculated from the half-life using the following equations: [drawing 1] […]
Equilibrium dialysis is a technique used to measure microsomal binding. […] Each compound was analyzed in duplicate for 4 h at 37 °C. At the end of incubation, both chambers were sampled and analyzed by LC-MS/MS. The unbound microsomal fraction (fu, mic) was calculated as the concentration in buffer divided by the total concentration in the microsomal side. […]

[3] = Intestinal permeability on Caco-2 cells; format: in vitro ADME, human; conditions: human, Caco-2, pH 7.4; A to B, n = 1; read-out: Caco-2 PA2B
Description: (§1) Caco-2 cells were obtained from the European Collection of Cell Cultures (ECACC) and used after a 21-day cell culture in 24-well Transwell plates. Test compounds and the references (vinblastine and propranolol) were prepared in protein-free Hanks’ balanced salt solution containing 25 mM HEPES (pH 7.4) at a concentration of 10 μM and added to either the apical or basolateral chambers of a Transwell plate assembly. Before the experiment, the integrity of the monolayer was checked by measuring the transepithelial resistance. Lucifer yellow (LY) was added to the donor buffer in all wells to assess the integrity of the cell layers by monitoring LY permeation. As LY cannot freely permeate lipophilic barriers, a high degree of LY transport indicates poor integrity of the cell layer. […] Concentrations of the compound in the samples were measured by LC–MS/MS. Apparent permeability (Papp) coefficients were calculated from the relationship: Papp = dQ/dt × 1/A × C0, where Papp is the apparent permeability coefficient (cm s^–1), dQ/dt is the amount of drug permeated per unit of time, A is the effective surface area of the artificial membrane exposed to the medium, and C0 is the initial drug concentration in the donor compartment. The efflux ratios, as an indication of active efflux from the apical cell surface, were calculated using the ratio of Papp(B → A)/Papp(A → B).

Caco-2 cells = experiment: Intestinal permeability on Caco-2 cells; format: in vitro ADME, human; conditions: A to B, n = 1
Description: as §1

CYP3A4 = experiment: CYP reversible inhibition in HLM, CYP3A4; format: in vitro ADME; conditions: human, human liver microsomes
Description: Test compounds were diluted in methanol and then added to mixture containing 50 mM potassium phosphate buffer, pH 7.4, human liver microsomes (BD Gentest) and probe substrate. After prewarming for 5 min at 37 °C, the reaction was started by adding cofactor mix (7.65 mg/mL glucose-6-phosphate, 1.7 mg/mL NADP, 6 U/mL of glucose-6-phosphate dehydrogenase), resulting in seven final concentrations of test compounds in the range 0.14–100 μM (2% methanol). Isoform specific conditions regarding probe substrate and microsomal protein concentrations are available in Table 2. Final concentrations of cofactor mix components were as follows: 1.56 mg/mL glucose-6-phosphate, 0.34 mg/mL NADP, and 1.2 U/mL glucose-6-phosphate dehydrogenase. After incubation at 37 °C, the reaction was terminated with acetonitrile:methanol (2:1) solution with internal standard. Samples were centrifuged, and the supernatant fractions were analyzed by LC-MS/MS. The instrument responses (test compounds and internal standard peak areas) were referenced to those for solvent controls (assumed as 100%) in order to determine the percentage reduction in probe metabolism. Percent of control activity vs concentration plots were generated and fitted using GraphPad Prism software to generate IC50.

(h)Sigma = experiment: Radioligand binding, (h)Sigma (Eurofins panel); parameters: species or system human; conditions: read-out: IC50, inhibition of radioligand binding to (h)Sigma

SMILES: COC1CCN(C2CCN(c3cc(C(=O)NS(=O)(=O)N(C)C)nc4c3c(C3CCC3)nn4-c3ccc(F)cc3)CC2)CC1 [Compound 52, 3-Cyclobutyl-N-(N,N-dimethylsulfamoyl)-1-(4-fluorophenyl)-4-(4-methoxy-[1,4′-bipiperidin]-1′-yl)-1H-pyrazolo[3,4-b]pyridine-6-carboxamide]
- Hepatocyte stability: %LBF mouse [1]: 24 %LBF
- Hepatocyte stability: predicted hepCl mouse ([1]; 1 µM): 31.7 mL/min/kg
- CLint scaled at 1 μM [2]: 347 mL/min/kg
- Papp A→B at 1 h, 10 μM [3]: 24.5 ×10⁻⁶ cm/s
- Caco-2 PA2B (Caco-2 cells): 24.5 cm × 10^–6 s^–1
- IC50 (CYP3A4; pH 7.4, probe midazolam): > 100 µM
- IC50 (CYP3A4; pH 7.4, probe testosterone): > 100 µM
- IC50 ((h)Sigma): 0.36 µM
